Results published in patent US20060013804A1, “Modulation of stem cell differentiation by modulation of caspase-3 activity” (Ottawa Health Research Institute, priority 2002, published 2006).

Key:
[1] = tested on: MST1; test: MST1 immunoblot and immunoprecipitation/Histone H1 kinase assay from C2C12 lysates; type: cell-based, mouse; details: for full-length MST1 protein level: C2C12, initial 24 h of low serum, Western blot
Experimental: Protein isolation, immunoblot analyses and immunocytochemistry. Cells from C2C12 and primary myoblast cultures were washed with ice-cold PBS and lysed on ice for 45 minutes in modified-RIPA buffer containing 20 mM NaF, 5 mM Na3VO4 and 10 μg/ml each of aprotinin, leupeptin, pepstatin and PMSF. Total protein was measured using the BCA protein assay (Pierce). Immunoblot analyses were performed as described (Creasy, C. L., & Chernoff, J. (1995) J. Biol. Chem. 270, 21695-21700) using antibodies for MST1, MKK6, p38γ, and p38α (Upstate), p38 and MEF2C (Cell Signaling Technologies), myogenin F5D and myosin heavy chain MF20 mAb (Developmental Hybridoma Bank), and active caspase-3 (Biovision).
Co-immunoprecipitation and kinase analyses. Immunoprecipitation was performed using 150-200 μg of total protein, incubated in modified-RIPA buffer at 4° C. for 16 h containing the respective antibody. Samples were mixed for 1 h with 25 μl of a 50% Protein G (Pharmacia). For co-immunoprecipitation, immunoprecipitates were washed in modified-RIPA buffer, boiled in 1× Lamelli buffer, separated by SDS-PAGE and Western blotted for immunoblot analyses. Immunoprecipitates used for kinase analyses were washed in modified-RIPA buffer and incubated in kinase buffer containing 20 mM MOPS (pH 7.2), 25 mM β-glycerophosphate, 5 mM EGTA, 1 mM Na3VO4 and 1 mM DTT supplemented with [γ-^32P]ATP and either recombinant MBP or recombinant Histone H1 (Upstate) as the target substrate. Samples were incubated for 30 min at 37° C. and then boiled in 1× Lamelli buffer. Following SDS-PAGE, gels were dried and phospho-incorporation was analyzed by autoradiography.
One kinase that was altered in activity co-migrated with a predicted pI (5.2) and molecular weight (36 kDa) consistent with Mammalian Sterile Twenty-like kinase (MST1). MST1 is a known caspase-3 activated kinase homologous to the yeast family of serine/threonine Ste20 kinases (Lechner, C., et al., (1996) Proc. Natl. Acad. Sci. USA 93, 43554359; Megeney, L. A., et al., (1996) Genes Dev 10, 1173-1183). […]

[2] = tested on: CD1 neurosphere cells; test: Annexin-V-PI flow cytometry of differentiating neurosphere cells; type: cell-based, mouse
Experimental: Neurospheres were sub-cultured no more than once per collection. The differentiation of neurospheres was initated by plating spheres on poly-L-ornithine coated plates in NeuroCult Differentiation Medium in the absence of bFGF, as per manufacturer's instructions. […] All cultures received fresh media and inhibitor every 24 h for the duration of the experiment. Neurospheres from caspase 3 null embryos (Fernando, P., et al., (2002) Proc Natl Acad Sci USA 99, 11025-11030) were cultured as described above.
Flow Cytometry: Annexin-V-propidium iodide (PI) analysis of apoptotic and nectrotic cells was performed using an Annexin-V-FLUOS staining kit (Roche, USA). Analyses were performed using a Beckman-Coulter ALTRA flow cytometer. To detect Annexin-V and PI positive cells, flow cytometric channels were gated using cells without stain, stained with PI alone and stained with Annexin-V alone. Cells that had dissociated from their neurosphere bodies were gently collected without excessive disruption of the sphere/cell body. These cells were chosen for flow cytometry analyses. Each sample was gated to control for cellular debris.
As in most developmental processes, a population of cells is required to undergo apoptosis prior to the differentiation of a separate pool of cells. Clearly, the inhibition of caspase 3 may adversely affect this process. To address this issue, we measured the degree of apoptosis that occurred during differentiation in caspase 3 inhibited and uninhibited cells using the specific caspase 3 peptide inhibitor zDEVD.fmk and Annexin V-propidium iodide (PI) staining coupled to cytometric analyses (FIG. 15). Annexin V detects cells that are either apoptotic or necrotic whereas propidium iodide is able to detect necrotic cells. Together, Annexin-V-PI analyses identify the population of cells that are apoptotic, i.e. Annexin-V positive/PI negative. To control for the heterogeneity of cells within neurospheres as described previously (Bez et al., (2003) Brain Res 993, 18-29), we performed our analyses on cells that had dissociated from the neurosphere. […]

## COC(=O)CC[C@H](NC(=O)[C@H](CC(=O)OC)NC(=O)OCc1ccccc1)C(=O)N[C@H](C(=O)N[C@@H](CC(=O)OC)C(=O)CF)C(C)C [z-DEVD.fmk]
[1]
  full-length MST1 protein level: remained relatively unchanged
[1]; listed as caspase-3 inhibitor
  full-length MST1 protein level: does not change
[1]; MST1 immunoprecipitated from C2C12 lysates, 12 h low serum media
  MST1 kinase activity (Histone H1 phosphorylation): no phosphorylation above basal levels was detectable
[2]; 12 h in differentiation media, cells dissociated from neurosphere
  Annexin-V positive/PI positive cell population: approximately 27%
[2]; 24 h in differentiation media
  level of apoptosis (Annexin-V-PI): 33%
[2]; inhibited relative to uninhibited cells
  effect on apoptosis during neurosphere differentiation: did not affect apoptosis
